# Data: patent US20150329498A1, “IRAK INHIBITORS AND USES THEREOF” (Nimbus Iris, Inc., priority 2014, published 2015)
# How the values were obtained:
# Assay type in all cases: cell-based
# [1] = system: TNFα production in human white blood cells (hWBC); assay: LPS induced TNFα production in hWBC; conditions: 1 ug/mL LPS, 20 hours
# Protocol: (§1) Compounds of the present invention were also studied in in vitro cytokine production assays. Exemplary protocols follow.
# (§2) Human whole blood and hWBC assays: Human whole blood was diluted by combining whole blood with no serum RPMI medium at a ratio of 1:1. 180 ul/well of the diluted whole blood/well was added to a 96 well plate. For WBC assay 100,000 cells/well were seeded in a 96-well plate with a volume of 100 ul/well. To make the compound master plate 9 ul of 30 mM compound solution was added into the wells in the assigned rows, then serial solutions with 4x dilutions were made in DMSO. That is, 9 uL of 100% DMSO were added into each of the rest wells and 3 uL of compound solution was taken from the one-step higher concentration solution and mixed well with the DMSO. An intermediate compound dilution plate was made by mixing 4 uL of the compound solution from the compound master plate with 196 uL of no serum RPMI medium. hWBC or human whole blood was treated for 0.5 hour by adding 20 uL/well of the compound and the control solutions from the intermediate compound plate to the cell plate. 80 uL/well or 20 uL/well of stimulant were then added to the human whole blood or hWBC respectively. […] The supernatants were then collected and cytokine levels were measured with ELISA for TNFα (R&D Systems, #DY210) and IFNα (R&D Systems, #41100-2) per manufacturer's instruction.
# [2] = system: TNFα production in human whole blood; assay: R848 induced TNFα production in human whole blood; conditions: 1 uM R848, 20 hours
# Protocol: as §1, §2
# [3] = system: IFNα production in human whole blood; assay: R848 induced IFNα production in human whole blood; conditions: 0.2 uM R848, 20 hours
# Protocol: as §1, §2
# [4] = system: IL8 production in THP-1 cells; assay: LPS induced IL8 production assay in THP-1 cells; conditions: Homo sapiens, 300 ng/mL LPS, measured at 16 hours
# Protocol: (§3) Provided compounds were also assayed in an LPS (Lipopolysaccharide) or R848 (TLR-7 agonist) induced cytokine (TNFα and IL8) production assay in THP-1 cells, human white blood cells (hWBC), and human whole blood. The exemplary protocol for this assay in THP-1 cells was as follows below.
# (§4) THP-1 cells from ATCC (TIB-202) were cultured in RPMI Medium 1640 (Invitrogen, Cat No. A10491-01), 10% fetal bovine serum (Invitrogen, Cat No. 10099141, Lot No. 8172882) containing 100 U/mL Penicillin, 100 μg/mL streptomycin (Invitrogen, Cat No. 15140-122), and 50 uM 2-Mercaptoethanol (Invitrogen, Cat No. 21985023). LPS-EK ultra pure (Invivogen, Cat No. tlrl-peklps) was used to induce IL8 and TNFα production, that was detected in the cell culture supernatant by IL8 HTRF kit (Cisbio, Cat No. 62IL8PEB) and TNFα HTRF kit (Cisbio, Cat No. 62TNFPEB), as per manufacturer instructions. Cells were cultured in 96 well assay plates at 100,000 cells per well, and compounds diluted in final 0.3% DMSO were pre-incubated with cells for 1 hour prior to stimulation with 300 ng/mL LPS. Cytokine production in cell supernatant was measured at 5 hours for TNFα production, and at 16 hours for IL8 production and assessment of cell viability.
# (§5) The compound numbers correspond to the compound numbers in Table 1. Compounds having an activity designated as “A” provided an IC50≦0.5 μM; compounds having an activity designated as “B” provided an IC50 of 0.5-5.0 μM; compounds having an activity designated as “C” provided an IC50>5.0 μM. “NA” stands for “not assayed.”
# [5] = system: TNFα production in THP-1 cells; assay: LPS induced TNFα production assay in THP-1 cells; conditions: Homo sapiens, 300 ng/mL LPS, measured at 5 hours
# Protocol: as §3, §4, §5
# [6] = system: IFNα production in human white blood cells (hWBC); assay: CpG induced IFNα production in hWBC; conditions: 0.5 uM CpG, 20 hours
# Protocol: as §1, §2
IC50 [1],IC50 [2],IC50 [3],IC50 [4],IC50 [5],IC50 [6],SMILES
250 to 1000 nM,250 to 1000 nM,250 to 1000 nM,≤ 500 nM,≤ 500 nM,1000 to 10000 nM,"N#Cc1ccc2ncnc(N[C@H]3CC[C@H](N4CCOCC4)CC3)c2c1 [Compound I-3, 4-(((1r,4r)-4-morpholinocyclohexyl)amino)quinazoline-6-carbonitrile]"
1000 to 10000 nM,≤ 250 nM,250 to 1000 nM,≤ 500 nM,≤ 500 nM,≤ 250 nM,"N#Cc1ccc2ncnc(N[C@H]3CC[C@H](N4CCC5(CC4)CC5)CC3)c2c1 [Compound I-7, 4-(((1r,4r)-4-(6-azaspiro[2.5]octan-6-yl)cyclohexyl)amino)-quinazoline-6-carbonitrile]"
